Assay [1] has as its target T1, Dual specificity tyrosine-phosphorylation-regulated kinase 3 (Homo sapiens) (UniProt O43781).
T1 sequence (whole entry): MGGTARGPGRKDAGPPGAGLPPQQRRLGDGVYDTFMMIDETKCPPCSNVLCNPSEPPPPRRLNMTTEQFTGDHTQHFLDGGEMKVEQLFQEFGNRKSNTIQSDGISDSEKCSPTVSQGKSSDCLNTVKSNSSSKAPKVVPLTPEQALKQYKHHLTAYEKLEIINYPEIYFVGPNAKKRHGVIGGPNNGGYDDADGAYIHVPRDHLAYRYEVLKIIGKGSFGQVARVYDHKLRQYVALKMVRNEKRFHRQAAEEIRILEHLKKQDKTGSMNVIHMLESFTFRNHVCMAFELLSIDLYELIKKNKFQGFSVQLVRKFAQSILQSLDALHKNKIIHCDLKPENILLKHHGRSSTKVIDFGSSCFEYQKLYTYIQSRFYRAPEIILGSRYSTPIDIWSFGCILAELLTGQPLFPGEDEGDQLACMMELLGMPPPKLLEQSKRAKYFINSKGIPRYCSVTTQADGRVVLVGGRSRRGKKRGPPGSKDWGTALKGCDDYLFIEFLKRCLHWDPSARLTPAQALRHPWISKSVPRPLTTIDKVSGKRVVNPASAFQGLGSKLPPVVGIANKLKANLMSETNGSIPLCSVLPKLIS
Nature of the assay: Selectivity interaction (ProQinase) EUB0000171b DYRK3.

Assay [2] deals with Phosphorylase b kinase gamma catalytic chain, skeletal muscle/heart isoform (Homo sapiens) (UniProt Q16816). The following applies: at 10 µM.
Assay [3] can be described thus: Selectivity interaction (Ambit KINOMEscan and KiNATiv profiling in Jurkat cells) EUB0000090b CDPK1. The following applies: Selectivity number of off-targets 9; Selectivity number of targets 456; Source Knowledge https://www.nature.com/articles/nchembio.2166; at 1 µM.
Assay [4] has as its target Tyrosine-protein kinase HCK (Homo sapiens) (UniProt P08631). The assay can be described thus: Selectivity interaction (KinaseProfiler screening (Millipore)) EUB0000601a HCK. The following applies: at 3 µM.
The target of assay [5] is Melanocortin receptor 4 (Homo sapiens) (UniProt P32245). Nature of the assay: Selectivity interaction (Eurofins CEREP Diversity Profile (receptors and ion channels)) EUB0000279b MC4R. The following applies: at 10 µM.
The target of assay [6] is T2, Histone-lysine N-methyltransferase NSD3 (Homo sapiens) (UniProt Q9BZ95).
T2 sequence (whole entry): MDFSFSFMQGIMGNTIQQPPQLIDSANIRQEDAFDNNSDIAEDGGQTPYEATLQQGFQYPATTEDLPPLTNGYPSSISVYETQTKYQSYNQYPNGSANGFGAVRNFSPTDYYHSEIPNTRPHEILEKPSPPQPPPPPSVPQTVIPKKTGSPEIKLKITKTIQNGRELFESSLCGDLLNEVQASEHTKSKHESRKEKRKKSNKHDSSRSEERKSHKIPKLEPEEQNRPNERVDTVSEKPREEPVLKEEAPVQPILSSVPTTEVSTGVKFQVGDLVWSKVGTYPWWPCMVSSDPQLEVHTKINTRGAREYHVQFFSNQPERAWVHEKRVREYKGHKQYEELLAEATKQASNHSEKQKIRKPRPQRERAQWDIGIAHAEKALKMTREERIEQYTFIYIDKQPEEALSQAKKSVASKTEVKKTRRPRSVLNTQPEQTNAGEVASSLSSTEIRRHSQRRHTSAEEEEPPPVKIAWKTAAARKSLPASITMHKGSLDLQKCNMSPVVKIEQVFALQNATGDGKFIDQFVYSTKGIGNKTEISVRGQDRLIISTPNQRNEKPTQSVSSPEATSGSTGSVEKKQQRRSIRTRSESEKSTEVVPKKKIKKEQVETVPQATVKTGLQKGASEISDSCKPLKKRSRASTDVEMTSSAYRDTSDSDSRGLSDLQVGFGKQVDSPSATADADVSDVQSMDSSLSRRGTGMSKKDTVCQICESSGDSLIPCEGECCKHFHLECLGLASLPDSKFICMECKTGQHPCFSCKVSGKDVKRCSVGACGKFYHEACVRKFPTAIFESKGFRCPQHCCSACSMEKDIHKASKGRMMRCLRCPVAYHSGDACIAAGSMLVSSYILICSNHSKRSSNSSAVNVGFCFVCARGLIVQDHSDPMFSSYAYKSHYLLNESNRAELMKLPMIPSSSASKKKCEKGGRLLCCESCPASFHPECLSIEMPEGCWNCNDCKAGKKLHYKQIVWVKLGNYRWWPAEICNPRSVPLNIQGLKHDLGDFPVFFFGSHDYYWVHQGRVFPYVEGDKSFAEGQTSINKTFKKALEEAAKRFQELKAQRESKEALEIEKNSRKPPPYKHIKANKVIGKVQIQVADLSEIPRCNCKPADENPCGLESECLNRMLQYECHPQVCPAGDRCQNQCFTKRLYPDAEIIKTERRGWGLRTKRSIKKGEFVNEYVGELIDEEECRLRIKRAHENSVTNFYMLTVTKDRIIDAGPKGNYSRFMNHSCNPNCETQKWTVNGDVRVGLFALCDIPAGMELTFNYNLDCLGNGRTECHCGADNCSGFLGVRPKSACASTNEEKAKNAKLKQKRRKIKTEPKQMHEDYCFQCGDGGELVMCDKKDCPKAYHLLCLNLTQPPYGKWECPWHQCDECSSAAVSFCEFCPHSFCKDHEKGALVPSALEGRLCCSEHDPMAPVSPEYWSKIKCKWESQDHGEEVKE
Nature of the assay: Selectivity interaction (PWWP, WD40, and Tudor domain panel (DSLS measurements, literature)) EUB0000270b NSD3.

The target of assay [7] is Histone-lysine N-methyltransferase SUV39H2 (Homo sapiens) (UniProt Q9H5I1). The following applies: at 1 µM.
A further assay has as its target SRSF protein kinase 1 (Homo sapiens, UniProt Q96SB4). The assay can be described thus: Selectivity interaction (KinomeScan (DiscoverX)) EUB0000229b SRPK1. The following applies: at 10 µM.

Some results are limits rather than exact numbers.

The text below walks through data of ChEMBL document CHEMBL5465560, “Selectivity Literature for EUbOPEN Chemogenomic Library” (2024).

Chain of SRSF protein kinase 1 (Q96SB4 whole entry): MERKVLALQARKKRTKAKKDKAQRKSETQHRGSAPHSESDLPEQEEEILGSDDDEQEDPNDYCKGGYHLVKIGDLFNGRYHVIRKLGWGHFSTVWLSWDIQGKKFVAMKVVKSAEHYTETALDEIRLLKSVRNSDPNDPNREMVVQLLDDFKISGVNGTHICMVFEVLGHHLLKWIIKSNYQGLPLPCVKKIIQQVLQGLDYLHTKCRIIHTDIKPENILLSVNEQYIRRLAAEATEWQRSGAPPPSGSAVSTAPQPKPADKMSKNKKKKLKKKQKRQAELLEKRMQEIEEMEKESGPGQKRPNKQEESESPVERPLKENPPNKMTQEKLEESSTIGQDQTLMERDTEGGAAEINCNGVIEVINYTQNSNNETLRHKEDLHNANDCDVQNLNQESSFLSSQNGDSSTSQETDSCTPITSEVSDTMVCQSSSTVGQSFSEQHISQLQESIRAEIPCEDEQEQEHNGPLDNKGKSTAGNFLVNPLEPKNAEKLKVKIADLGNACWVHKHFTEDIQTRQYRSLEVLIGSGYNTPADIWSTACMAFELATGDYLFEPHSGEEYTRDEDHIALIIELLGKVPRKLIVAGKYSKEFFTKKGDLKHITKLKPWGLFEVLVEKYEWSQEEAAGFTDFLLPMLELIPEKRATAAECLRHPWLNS
Chain of Histone-lysine N-methyltransferase SUV39H2 (Homo sapiens) (Q9H5I1 whole entry): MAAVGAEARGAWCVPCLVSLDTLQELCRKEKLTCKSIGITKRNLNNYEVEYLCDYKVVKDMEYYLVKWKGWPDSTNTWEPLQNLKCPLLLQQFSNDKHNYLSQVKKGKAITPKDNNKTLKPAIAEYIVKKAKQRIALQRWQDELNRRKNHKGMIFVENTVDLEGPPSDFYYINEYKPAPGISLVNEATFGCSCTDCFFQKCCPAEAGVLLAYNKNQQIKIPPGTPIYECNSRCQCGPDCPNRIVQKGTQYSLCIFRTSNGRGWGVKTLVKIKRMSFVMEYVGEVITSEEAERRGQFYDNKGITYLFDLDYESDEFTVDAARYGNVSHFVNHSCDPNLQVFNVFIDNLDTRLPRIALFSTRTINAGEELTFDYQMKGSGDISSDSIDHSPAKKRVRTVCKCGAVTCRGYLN
Chain of Melanocortin receptor 4 (Homo sapiens) (P32245 whole entry): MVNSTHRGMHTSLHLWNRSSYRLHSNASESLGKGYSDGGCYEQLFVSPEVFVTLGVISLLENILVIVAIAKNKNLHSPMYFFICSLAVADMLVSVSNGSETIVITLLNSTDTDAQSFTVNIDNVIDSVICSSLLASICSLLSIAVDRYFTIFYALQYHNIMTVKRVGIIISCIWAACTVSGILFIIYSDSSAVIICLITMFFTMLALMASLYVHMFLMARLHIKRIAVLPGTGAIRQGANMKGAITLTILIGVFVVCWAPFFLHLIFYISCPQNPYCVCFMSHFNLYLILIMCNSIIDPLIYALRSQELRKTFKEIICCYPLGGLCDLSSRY
Chain of Tyrosine-protein kinase HCK (Homo sapiens) (P08631 2-526 limits assumed): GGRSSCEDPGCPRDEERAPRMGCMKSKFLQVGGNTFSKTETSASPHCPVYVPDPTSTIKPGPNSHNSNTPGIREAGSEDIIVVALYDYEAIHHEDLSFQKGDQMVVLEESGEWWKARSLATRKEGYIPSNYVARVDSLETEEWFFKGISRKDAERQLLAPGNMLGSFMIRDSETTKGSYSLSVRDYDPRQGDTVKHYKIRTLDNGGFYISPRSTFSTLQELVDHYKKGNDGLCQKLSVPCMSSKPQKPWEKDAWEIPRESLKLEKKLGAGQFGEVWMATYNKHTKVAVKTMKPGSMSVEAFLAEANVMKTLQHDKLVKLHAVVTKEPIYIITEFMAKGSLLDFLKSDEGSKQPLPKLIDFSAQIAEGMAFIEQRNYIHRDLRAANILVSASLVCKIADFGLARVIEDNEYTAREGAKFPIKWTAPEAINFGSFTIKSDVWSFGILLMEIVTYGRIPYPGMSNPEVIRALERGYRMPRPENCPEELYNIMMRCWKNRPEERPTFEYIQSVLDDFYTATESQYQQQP
Chain of Phosphorylase b kinase gamma catalytic chain, skeletal muscle/heart isoform (Homo sapiens) (Q16816 whole entry, looked up, canonical isoform): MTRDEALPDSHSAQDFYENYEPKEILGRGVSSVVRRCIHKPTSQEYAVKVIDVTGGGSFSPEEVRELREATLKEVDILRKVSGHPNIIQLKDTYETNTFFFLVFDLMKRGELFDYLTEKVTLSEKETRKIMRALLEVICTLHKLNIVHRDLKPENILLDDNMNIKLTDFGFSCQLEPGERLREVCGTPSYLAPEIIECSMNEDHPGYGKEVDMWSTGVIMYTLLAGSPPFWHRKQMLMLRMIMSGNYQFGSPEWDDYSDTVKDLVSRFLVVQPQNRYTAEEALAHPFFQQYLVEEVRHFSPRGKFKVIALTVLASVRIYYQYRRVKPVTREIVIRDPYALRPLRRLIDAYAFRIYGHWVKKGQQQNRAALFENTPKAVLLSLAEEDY

As for `C=CC(=O)Nc1cccc(C(=O)Nc2ccc(Nc3cc(-c4[nH]c(SC)nc4C)ccn3)cc2)c1`, the % of control came out at 82% in assay [1] (at 1 µM) and 39% in assay [1] (at 5 µM).
Molecule `Cc1cc([C@@H](C)Nc2ccccc2C(=O)O)c2nc(N3CCOCC3)cc(=O)n2c1` [AZD-6482] gave a % of control in assay [2] of 93%.
On to `CN(C)C/C=C/C(=O)Nc1ccc(C(=O)N2CCCC(Nc3ncc(Cl)c(-c4c[nH]c5ccccc45)n3)C2)cc1` (centres undefined), for which, in assay [3], the “% of control” value was found to be 7%.
With `CCc1cc(Nc2nccc(-c3c(-c4ccc(OC)c(C(=O)Nc5c(F)cccc5F)c4)nc4ccccn34)n2)c(OC)cc1N1CCC(N2CCN(S(C)(=O)=O)CC2)CC1`, the % of inhibition in assay [4] was 81%.
On to `CC(=O)c1cc(-c2ccccc2OCC2CC2)c2ncccn12`, for which the % of control in assay [5] was 90%.
In assay [6], `Cc1cc(CN)cc(C)c1-c1ncn(C)c1-c1cncn1C` had a dTagg of 0.5 K.
Turning to `CNCCN1CCC(c2cc(CN(C)C(=O)c3cccc(Oc4ccccc4)c3)ccn2)CC1`, the % activity in assay [7] was > 90%.
In the case of `COc1cc(N(C)c2ccnc3ccc(C(F)(F)F)cc23)cc(OC)c1OC`, the % binding on SRSF protein kinase 1 stood at 92%.
